Reference: ChEMBL document CHEMBL3045868, “Synthesis and antibacterial activities of para-alkoxy phenyl--ketoaldehyde derivatives” (Med Chem Res, 2013)

What was measured:
Format in all cases: functional
Staphylococcus aureus [1] = assay: Antibacterial activity against Staphylococcus aureus clinical isolate 10 assessed as growth inhibition at pH 9 after 16 to 18 hr by NCCLS agar dilution method
Staphylococcus aureus [2] = assay: Antibacterial activity against Staphylococcus aureus clinical isolate 7 assessed as growth inhibition at pH 7 after 16 to 18 hr by NCCLS agar dilution method
Staphylococcus aureus [3] = assay: Antibacterial activity against Staphylococcus aureus clinical isolate 5 assessed as growth inhibition at pH 7 after 16 to 18 hr by NCCLS agar dilution method
Staphylococcus aureus [4] = assay: Antibacterial activity against Staphylococcus aureus clinical isolate 3 assessed as growth inhibition at pH 7 after 16 to 18 hr by NCCLS agar dilution method
Staphylococcus aureus [5] = assay: Antibacterial activity against Staphylococcus aureus clinical isolate 2 assessed as growth inhibition at pH 7 after 16 to 18 hr by NCCLS agar dilution method
Staphylococcus aureus [6] = assay: Antibacterial activity against Staphylococcus aureus clinical isolate 24 assessed as growth inhibition at pH 5 after 16 to 18 hr by NCCLS agar dilution method
Staphylococcus aureus [7] = assay: Bactericidal activity against Staphylococcus aureus clinical isolate 6 after 24 hr; conditions: isolate 6, 24 h
Staphylococcus aureus [8] = assay: Bactericidal activity against Staphylococcus aureus clinical isolate 1 after 24 hr; conditions: isolate 1, 24 h
Staphylococcus aureus [9] = assay: Antibacterial activity against Staphylococcus aureus clinical isolate 8 assessed as growth inhibition after 16 to 18 hr by NCCLS agar dilution method
Staphylococcus aureus [10] = assay: Antibacterial activity against Staphylococcus aureus clinical isolate 23 assessed as growth inhibition at pH 5 after 16 to 18 hr by NCCLS agar dilution method
Staphylococcus aureus [11] = assay: Antibacterial activity against Staphylococcus aureus clinical isolate 21 assessed as growth inhibition at pH 5 after 16 to 18 hr by NCCLS agar dilution method
Staphylococcus aureus [12] = assay: Antibacterial activity against Staphylococcus aureus clinical isolate 24 assessed as growth inhibition at pH 7 after 16 to 18 hr by NCCLS agar dilution method
Staphylococcus aureus [13] = assay: Antibacterial activity against Staphylococcus aureus clinical isolate 21 assessed as growth inhibition at pH 7 after 16 to 18 hr by NCCLS agar dilution method
Staphylococcus aureus [14] = assay: Antibacterial activity against Staphylococcus aureus clinical isolate 20 assessed as growth inhibition at pH 7 after 16 to 18 hr by NCCLS agar dilution method
Staphylococcus aureus [15] = assay: Antibacterial activity against Staphylococcus aureus clinical isolate 16 assessed as growth inhibition at pH 7 after 16 to 18 hr by NCCLS agar dilution method
Staphylococcus aureus [16] = assay: Antibacterial activity against Staphylococcus aureus clinical isolate 9 assessed as growth inhibition at pH 5 after 16 to 18 hr by NCCLS agar dilution method
Staphylococcus aureus [17] = assay: Antibacterial activity against Staphylococcus aureus clinical isolate assessed as growth inhibition at pH 9 after 16 to 18 hr by NCCLS agar dilution method
Staphylococcus aureus [18] = assay: Antibacterial activity against Staphylococcus aureus clinical isolate assessed as growth inhibition at pH 7 after 16 to 18 hr by NCCLS agar dilution method
Staphylococcus aureus [19] = assay: Antibacterial activity against Staphylococcus aureus clinical isolate 24 assessed as growth inhibition at pH 9 after 16 to 18 hr by NCCLS agar dilution method
Staphylococcus aureus [20] = assay: Antibacterial activity against Staphylococcus aureus clinical isolate 23 assessed as growth inhibition at pH 9 after 16 to 18 hr by NCCLS agar dilution method
Staphylococcus aureus [21] = assay: Antibacterial activity against Staphylococcus aureus clinical isolate 21 assessed as growth inhibition at pH 9 after 16 to 18 hr by NCCLS agar dilution method
Staphylococcus aureus [22] = assay: Antibacterial activity against Staphylococcus aureus clinical isolate 19 assessed as growth inhibition at pH 9 after 16 to 18 hr by NCCLS agar dilution method
Staphylococcus aureus [23] = assay: Antibacterial activity against Staphylococcus aureus clinical isolate 17 assessed as growth inhibition at pH 9 after 16 to 18 hr by NCCLS agar dilution method
Staphylococcus aureus [24] = assay: Antibacterial activity against Staphylococcus aureus clinical isolate 5 assessed as growth inhibition after 16 to 18 hr by NCCLS agar dilution method
Staphylococcus aureus [25] = assay: Antibacterial activity against Staphylococcus aureus clinical isolate 4 assessed as growth inhibition after 16 to 18 hr by NCCLS agar dilution method
Staphylococcus aureus [26] = assay: Antibacterial activity against Staphylococcus aureus clinical isolate 3 assessed as growth inhibition after 16 to 18 hr by NCCLS agar dilution method
Helicobacter pylori [27] = assay: Antibacterial activity against Helicobacter pylori 05-14 assessed as growth inhibition after 16 to 18 hr NCCLS agar dilution method
Helicobacter pylori [28] = assay: Antibacterial activity against Helicobacter pylori 05-9 assessed as growth inhibition after 16 to 18 hr NCCLS agar dilution method
Helicobacter pylori [29] = assay: Antibacterial activity against Helicobacter pylori ATCC 11637 assessed as growth inhibition after 16 to 18 hr NCCLS agar dilution method
Staphylococcus aureus [30] = assay: Antibacterial activity against Staphylococcus aureus ATCC 25923 assessed as growth inhibition after 16 to 18 hr by NCCLS agar dilution method
Helicobacter pylori [31] = assay: Antibacterial activity against Helicobacter pylori 06-6 assessed as growth inhibition after 16 to 18 hr NCCLS agar dilution method
Helicobacter pylori [32] = assay: Antibacterial activity against Helicobacter pylori 06-4 assessed as growth inhibition after 16 to 18 hr NCCLS agar dilution method
Helicobacter pylori [33] = assay: Antibacterial activity against Helicobacter pylori 06-3 assessed as growth inhibition after 16 to 18 hr NCCLS agar dilution method
Staphylococcus aureus [34] = assay: Antibacterial activity against Staphylococcus aureus clinical isolate 20 assessed as growth inhibition at pH 5 after 16 to 18 hr by NCCLS agar dilution method
Staphylococcus aureus [35] = assay: Antibacterial activity against Staphylococcus aureus clinical isolate 18 assessed as growth inhibition at pH 5 after 16 to 18 hr by NCCLS agar dilution method
Staphylococcus aureus [36] = assay: Bactericidal activity against methicillin-resistant Staphylococcus aureus isolate 4 after 24 hr; conditions: isolate 4, 24 h
Staphylococcus aureus [37] = assay: Bactericidal activity against methicillin-resistant Staphylococcus aureus isolate 1 after 24 hr; conditions: isolate 1, 24 h
Staphylococcus aureus [38] = assay: Bactericidal activity against methicillin-resistant Staphylococcus aureus isolate 2 after 24 hr; conditions: isolate 2, 24 h
Staphylococcus aureus [39] = assay: Antibacterial activity against methicillin-resistant Staphylococcus aureus assessed as growth inhibition after 16 to 18 hr by NCCLS agar dilution method
Staphylococcus aureus [40] = assay: Antibacterial activity against methicillin-resistant Staphylococcus aureus isolate 4 assessed as growth inhibition after 16 to 18 hr by NCCLS agar dilution method
Staphylococcus aureus [41] = assay: Antibacterial activity against methicillin-resistant Staphylococcus aureus isolate 2 assessed as growth inhibition after 16 to 18 hr by NCCLS agar dilution method
Staphylococcus aureus [42] = assay: Bactericidal activity against Staphylococcus aureus clinical isolate after 24 hr
Staphylococcus aureus [43] = assay: Antibacterial activity against Staphylococcus aureus clinical isolate assessed as growth inhibition after 16 to 18 hr by NCCLS agar dilution method

CO/N=C/CC(=O)c1ccc(OC)cc1
32 µg/mL: MIC (Staphylococcus aureus [11]) | MIC (Staphylococcus aureus [16]) | MIC90 (Staphylococcus aureus [18]) | MIC (Helicobacter pylori [29]) | MIC (Helicobacter pylori [32]) | MIC (Helicobacter pylori [33]) | MIC (Staphylococcus aureus [35])
2 µg/mL: MIC (Staphylococcus aureus [30])
256 µg/mL: MBC (Staphylococcus aureus [36]) | MBC (Staphylococcus aureus [38])
64 µg/mL: MIC (Staphylococcus aureus [6]) | MBC (Staphylococcus aureus [7]) | MIC (Helicobacter pylori [28]) | MIC (Staphylococcus aureus [34]) | MBC50 (60.1); MBC90 (60.2) (Staphylococcus aureus [42]; read-out: MIC50)
8 µg/mL: MIC (Staphylococcus aureus [1]) | MIC (Staphylococcus aureus [2]) | MIC (Staphylococcus aureus [12]) | MIC (Staphylococcus aureus [15]) | MIC50 (Staphylococcus aureus [17]) | MIC (Staphylococcus aureus [19]) | MIC (Staphylococcus aureus [20]) | MIC (Staphylococcus aureus [21]) | MIC (Staphylococcus aureus [24]) | MIC (Staphylococcus aureus [26]) | MIC50 (Staphylococcus aureus [39]) | MIC90 (Staphylococcus aureus [39]) | MIC (Staphylococcus aureus [40]) | MIC (Staphylococcus aureus [41])
128 µg/mL: MBC (Staphylococcus aureus [8]) | MBC (Staphylococcus aureus [37]) | MBC50 (60.1); MBC90 (60.2) (Staphylococcus aureus [42]; read-out: MIC90)
16 µg/mL: MIC (Staphylococcus aureus [3]) | MIC (Staphylococcus aureus [4]) | MIC (Staphylococcus aureus [5]) | MIC (Staphylococcus aureus [9]) | MIC (Staphylococcus aureus [10]) | MIC (Staphylococcus aureus [13]) | MIC (Staphylococcus aureus [14]) | MIC90 (Staphylococcus aureus [17]) | MIC50 (Staphylococcus aureus [18]) | MIC (Staphylococcus aureus [22]) | MIC (Staphylococcus aureus [23]) | MIC (Staphylococcus aureus [25]) | MIC (Helicobacter pylori [27]) | MIC (Helicobacter pylori [31]) | MIC50 (Staphylococcus aureus [43]) | MIC90 (Staphylococcus aureus [43])
